Source: patent US5316767A, “Whitening cosmetic composition” (priority 1990, dated 1994)
Values after ≈ are worked out from the molar mass of the structure shown. Numbered stars: 1 amine (or outer) side, 2 acyl side, 3 side chain; on linkers, the order of the positions; unused ones are H or OH. Bridge positions count the residues as written; N and C are the ends. Square brackets hold non-standard residues; d marks the D form. Peptide text beside a SMILES is read from it. I, II: the chains in the order shown. γGlu = O=C(O)[C@H](CCC(=O)[*:2])N[*:1]

Assays:
[1] = system: B16-C melanoma cells; assay: Melanin formation inhibitory activity in B16-C melanoma cells (Experiment 2); type: cell-based, mouse
Protocol: After 2 ml of MEM medium (manufactured by Nissui Pharmaceutical Co.) (serum concentration of 5%) was added in a 6-well culture plate, mouse-derived B16-C melanoma cells were plated at 2×10^5 cells/well and test compounds were then separately added. B16-C melanoma cells were cultured at 37° C. in 5% CO2 incubator. On Day 3 and Day 5, the medium was exchanged and at the same time, the test compounds were separately added. On Day 7, the medium was removed. The cells were trypsinized and resuspended in PBS and pelleted by centrifugation. […] The protein content in the cells and the amount of melanin formed were determined, whereby the amount of melanin formed (μg) per protein content (mg) were calculated. The protein content and the amount of melanin formed were quantitatively determined by the method of Bradford et al. [Analytical Biochemistry, 72, 248-254 (1976)] and by measuring absorbance of the test solution at 470 nm [Cancer Research, 45, 1474-1478 (1985)], respectively.

[2] = physchem; details: pH 6.5
[3] = physchem; details: pH 6.5; remark: listed apart in the source
[4] = physchem; details: water
[5] = Water solubility
[6] = Heat stability: residual rate after heating at 100° C. for 20 minutes; details: pH 6.5
[7] = Storage stability: residual rate after allowing to stand at 40° C. for 30 days
[8] = 0.25 mM, first series (nothing added: 211.4 ± 11.45)
[9] = 0.5 mM, first series (nothing added: 211.4 ± 11.45)
[10] = 1.0 mM, first series (nothing added: 211.4 ± 11.45)

OC[C@H]1O[C@@H](Oc2ccc(O)cc2)[C@H](O)[C@@H](O)[C@@H]1O [Arbutin]
Melanin Content/Protein Content [1, 8]: 108.7 ± 13.04 µg/mg
Melanin Content/Protein Content [1, 9]: 89.2 ± 13.48 µg/mg
Melanin Content/Protein Content [1, 10]: growth inhibition
remaining at 20 min, 10000 µM [2]: 100%
remaining at 720 h, 10000 µM [3]: 100%
solubility [4]: 142 mg/mL (≈ 520 mM)

N[C@@H](CCC(=O)N[C@@H](CS)C(=O)NCC(=O)O)C(=O)O [Glutathione, γ-L-glutamyl-L-cysteinyl-glycine]
remaining at 20 min, 10000 µM [2]: 70%
remaining at 720 h, 10000 µM [3]: 0%

O=c1cc(CO)occ1O [Kojic acid]
Melanin Content/Protein Content [1, 8]: 233.7 ± 14.37 µg/mg
Melanin Content/Protein Content [1, 9]: 202.4 ± 11.49 µg/mg
Melanin Content/Protein Content [1, 10]: 188.6 ± 9.93 µg/mg
Activity for inhibiting melanin formation as compared with γ-L-glutamyl-L-cysteine disulfide and oxidized glutathione ([1]; Table 3): poorer
solubility [5]: 48.3 mg/mL (≈ 340 mM)
remaining at 20 min, 10000 µM [6]: 100%
Coloration ([7]; 40° C., 30 days, pH 6.5, 10 mM): colored
remaining at 720 h, 10000 µM ([7]; pH 6.5): 100%

CC(=O)N[C@@H](CCC(=O)N[C@@H](CSSC[C@H](NC(=O)CC[C@H](NC(C)=O)C(=O)O)C(=O)NCC(=O)O)C(=O)NCC(=O)O)C(=O)O [N,N'-diacetyl-oxidized glutathione, N,N'-diacetyl oxidized glutathione] (I: Ac-[γGlu]-Cys-Gly-OH / II: Ac-[γGlu]-Cys-Gly-OH; disulfide I:2-II:2)
Melanin Content/Protein Content ([1]; 1.0 mM, second series (nothing added: 330.1 ± 22.5)): 221.4 ± 18.6 µg/mg
Melanin Content/Protein Content ([1]; 2.0 mM, second series (nothing added: 330.1 ± 22.5)): 198.1 ± 8.5 µg/mg
Inhibition of melanin formation in B16-C melanoma cells ([1]; Table 3): significantly inhibiting melanin formation
remaining at 20 min, 10000 µM [2]: 100%
remaining at 720 h, 10000 µM [3]: 100%
solubility [4]: > 200 mg/mL

N[C@@H](CCC(=O)N[C@@H](CSSC[C@H](NC(=O)CC[C@H](N)C(=O)O)C(=O)O)C(=O)O)C(=O)O [γ-L-glutamyl-L-cysteine disulfide]
Melanin Content/Protein Content [1, 9]: 189.3 ± 10.56 µg/mg
Melanin Content/Protein Content [1, 10]: 155.6 ± 7.68 µg/mg
Melanin Content/Protein Content ([1]; 2.0 mM, first series (nothing added: 211.4 ± 11.45)): 154.7 ± 12.16 µg/mg
Inhibition of melanin formation in B16-C melanoma cells ([1]; Table 3): significantly inhibiting melanin formation
remaining at 20 min, 10000 µM [2]: 100%
remaining at 720 h, 10000 µM [3]: 100%
solubility [4]: > 554 mg/mL

N[C@@H](CCC(=O)N[C@@H](CSSC[C@H](N)C(=O)O)C(=O)O)C(=O)O [γ-L-glutamyl-L-cystine]
remaining at 20 min, 10000 µM [2]: 100%
remaining at 720 h, 10000 µM [3]: 100%
solubility [4]: > 742 mg/mL
